Experimental data reported in patent US12201619B2, “Compounds and methods for use in the treatment of microglia-mediated disorders” (NSC Therapeutics GmbH, priority 2018, dated 2025).
Changes are numbered by the printed parent chain. “Also recorded” adds a separate entry of the source.

Tests used:
[1] = tested on: human blood-derived macrophages; assay: Cell viability (PrestoBlue) of blood-derived human macrophages; type: cell-based; conditions: for cell viability in regards to medium control: 0-24 h, 1-2000 μM for NSC001 and AF102B; for persistence of the cell viability effect: after 24 hours of treatment
Procedure: Human blood-derived macrophages were isolated from buffy coat via standard protocols (Monocyte isolation Kit, 130091153, Miltenyi Biotec GmbH, Germany) and differentiated for 9 days in M-CSF medium (Ser. No. 12/065,074, Thermo Fisher, Switzerland,) supplemented with 125 ng/ml human GM-CSF (130093864, Miltenyi Biotec GmbH, Germany) to induce M1 macrophage differentiation. Upon differentiation, cells were harvested and re-seeded at 1 Mio cells per 24-well. […] Cell viability was detected by absorbance measurements utilizing the PrestoBlue colorimetric assay (PrestoBlue Cell Viability Reagent, A13261, Thermo Fisher, Switzerland). Cell viability was assessed directly after compound application at 0 h and after 1 h, 3 h and 24 h.

human M1 mAChR [2] = molecular target: T1, human M1 mAChR (Homo sapiens, UniProt P11229); assay: Phosphoinositide (PI) hydrolysis in CHOM1 cells; type: cell-based; set-up: expressed in transfected cells; host or cells: CHO (Chinese Hamster Ovary) cells, CHOM1, kept under G418; conditions: for Emax at 1000 µM: read-out: PI hydrolysis maximal response relative to CCh
T1 sequence (P11229 1-460): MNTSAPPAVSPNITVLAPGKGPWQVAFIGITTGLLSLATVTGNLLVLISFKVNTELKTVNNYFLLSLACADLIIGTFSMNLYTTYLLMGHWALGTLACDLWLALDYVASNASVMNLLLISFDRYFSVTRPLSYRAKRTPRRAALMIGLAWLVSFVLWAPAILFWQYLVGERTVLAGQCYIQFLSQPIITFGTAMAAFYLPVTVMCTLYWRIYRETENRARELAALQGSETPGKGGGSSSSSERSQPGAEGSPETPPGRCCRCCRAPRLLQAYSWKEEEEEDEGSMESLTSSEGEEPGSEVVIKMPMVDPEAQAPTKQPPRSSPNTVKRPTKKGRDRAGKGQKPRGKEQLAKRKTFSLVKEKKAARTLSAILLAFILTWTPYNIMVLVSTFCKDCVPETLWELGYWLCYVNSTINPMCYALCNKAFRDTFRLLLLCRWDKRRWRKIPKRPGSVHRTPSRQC
Procedure: (§1) Rat pheochromocytoma cells (PC12) transfected with rat M1 muscarinic receptor (PC12M1) or CHOM1 cells were seeded in 24-well plates at a density of 4-8×10^5 cells/well. A day later, a fresh growth medium containing 1 μCi/ml [^3H]inositol (myo-[2-^3H(N)] 22 Ci/mmol; purchased from NEN, Boston, MA) was added for 18-24 h (overnight). Then, the medium was removed and the cells were washed twice followed by pre-incubation (10 min) with serum-free medium containing 20 mM Hepes pH 7.4 and 10 mM LiCl. […] Basal activity was determined in cells that were incubated in parallel without the tested compounds. Termination of the assay was carried out by aspirating the media and adding 0.5 ml 2% trichloroacetic acid (TCA) followed by agitating the cells in the cold for 30 min. The TCA extracts were transferred to anion-exchange columns, washed five times with 5 mM inositol, once with 5 ml 5 mM Na2B4O7 in 60 mM formic acid, and the total IPs were eluted with 3 ml 1 M NH4COOH in 0.1 M formic acid. The effluent was collected into scintillation vials and the radioactivity was measured using liquid scintillation counter, 1214 Rackbeta LKB Wallac.

M1 receptor = molecular target: T2, M1 receptor (Homo sapiens, UniProt P11229); conditions: in vitro; cited from earlier work
T2 sequence (P11229 1-460): T1 sequence (P11229 1-460)

[3] = molecular target: T3, rat M1 muscarinic receptor (Rattus norvegicus, UniProt P08482); assay: Phosphoinositide (PI) hydrolysis in PC12M1 cells; type: cell-based
T3 construct: expressed in transfected cells; host or cells: PC12 rat pheochromocytoma cells (PC12M1)
T3 sequence (P08482 1-460): T1 sequence (P11229 1-460) with A5V, T254S, P309S, R320K, A337G, I413V
Procedure: as §1

[4] = tested on: TREM2 (sTREM2, tTREM2) in primary microglia; assay: Soluble and total TREM2 levels (ELISA) in primary microglia cultures; type: cell-based, mouse; conditions: for sTREM2 levels in medium: normalized to PMA 1 μM
Procedure: Primary microglia were isolated from C57BL6 pups (P4-6). Mouse brains were prepared by removing the cerebellum and the meninges. Brain tissue was dissected and single cell suspension was sorted via CD11b Microbeads (Milteny Biotec) to obtain primary microglia. Cells were plated at 4×10^5 cell/ml in 24 well plates and cultured for 24 hours in DMEM supplemented with 10% FBS and 1% Penicillin/Streptomycin.
Mouse primary microglia were prepared from mice postnatal day 4-6 according to standard protocols (Neuronal Tissue Dissociation Kit (P), 130-092-628 and CD11b Microbeads, 130-093-634; Miltenyi Biotec 5 GmbH, Germany) and seeded in 24-well plates at a density of 4×10^5 cells/well. After one day, cell medium was removed and cells were washed once with PBS. Subsequently, cell were treated with compound NSC001 (0-2000 μM) in FBS-free DMEM for 1 or 24 hours. Termination of the assay was carried out by collecting the media and concomitant concentration via centrifugal filter units (Amicon, Z648027-24EA, Sigma 10 Aldrich, Ireland). Cell lysis was performed by adding RIPA lysis buffer (RIPA buffer, R0278, Sigma-Aldrich Co LLC, USA) followed by agitating the cells at 4° C. for 30 min. Primary microglia cell lysates and concentrated cell medium were analyzed for soluble TREM2 (sTREM2; FIG. 3A,B) and total TREM2 (tTREM2; FIG. 3C,D) levels by ELISA (CSBEL024405MO, Cusabio Life Science, China).

human M1 mAChR [5] = molecular target: T1, human M1 mAChR; assay: cell-based; conditions: for calcium mobilization response relative to CCh: CHOM1 cells, 50 μM compound
Procedure: Cells were routinely cultured in Dulbecco's Modified eagle medium (Gibco, UK) supplemented with 10% fetal bovine serum (FBS), 1×MEM non-essential amino-acid, […] Glutamine, 100μ/ml Penicillin, 0.1 mg/ml Streptomycin, 25 μg/ml Amphotericin B and 100 μg/ml G418 (Biological industries, Israel). Cells were kept in a humidified atmosphere at 37° C. in 5% CO2 and were passaged twice weekly by 2.5 mg/ml trypsin-EDTA (0.02%) solution (Biological industries, Israel) and re-suspended in fresh media.
Calcium fluorescence measurements were performed using a NOVOstar plate reader with an injector and a pipetting system (BMG Labtech, Ortenberg, Germany). At the day before the experiment Chinese Hamster Ovary (CHO) cells expressing human M1 mAChR subtypes (CHOM1) were harvested and rinsed with culture medium (see section “cell culture”, supra) without Phenol red and evenly plated into black-wall clear optical bottom 96-well plate (Nunc, Rochester NY, USA) at a density of 40,000 cells/well. Growth medium was removed and 80 μl of loading buffer, containing 2.5 mM probenecid, was carefully added (loading buffer prepared according to FLUO-4 NW calcium assay kit manual). The cell plate was incubated at 37° C. for 30 minutes; then at room temperature for an additional 30 minutes. EGTA (10 μl of 50 mM dissolved in HBSS) was added automatically to each well using the NOVOstar injector system followed by shaking of 1 minute (1 mm width, 600 rpm) and then incubated for another 10 minutes. HBSS alone or test compounds dissolved in HBSS were then added (10 μl) sequentially into separate wells using the NOVOstar robotic pipettor system. Fluorescence intensity was measured at 0.5 second intervals, for 30 second for each well, using an excitation wavelength of 485 nm (bandwidth 10 nm) and emission of 520 nm (bandwidth 10 nm), cut-off 515 nm. All assays were carried out in triplicates in three independent experiments. Competition curves and EC50 values were derived using the GraphPad Prism software program, version 3.0.

3×Tg-AD mice = conditions: cited from earlier work
AD patients = conditions: cited from earlier work
[6] = dry storage conditions; cited from earlier work
[7] = 24 hours treatment, listed as AF267B
[8] = 24 hours treatment, hydrochloride

SMILES	cell viability in regards to medium control [1]	persistence of the cell viability effect [1]	Emax at 1000 µM (human M1 mAChR [2]) [%]	Aβ levels (M1 receptor)	Aβ-induced neurotoxicity (M1 receptor)	tau hyperphosphorylation (M1 receptor)	αAPPs (M1 receptor)	EC50 (human M1 mAChR [5]) [nM]	calcium mobilization response relative to CCh (human M1 mAChR [5]) [%]	also measured
CCCCCCCCCCCCCC(=O)O[C@@H]1[C@@H](C)[C@@]2(O)[C@@H](C=C(CO)C[C@]3(O)C(=O)C(C)=C[C@@H]23)[C@@H]2C(C)(C)[C@]12OC(C)=O [PMA, Phorbol myristate acetate]	increased	reversed to baseline								
CC[C@@H]1SC2(CCN(C)CC2)NC1=O [NSC001, (S)-2-ethyl-8-methyl-1-thia-4,8-diaza-spiro[4.5]decan-3-one]	increased; also recorded: increase in viability	persisted	63 ± 1	decrease	block	decrease	increase	1840 ± 390	113	EC50 (human M1 mAChR [2]; CHOM1 cells): 19000 nM; PI hydrolysis / M1 mAChR activation [3]: efficacious; also recorded: efficiently induces PI hydrolysis; cellular tTREM2 levels ([4]; 1 hour treatment): remained constant; also recorded: no effect; sTREM2 levels in medium ([4]; 1 hour treatment): no alteration detected; also recorded: no effect; concentration able to increase sTREM2 levels comparable to PMA ([4]; 24 h, PMA 1 μM): 1 µM; further increase in sTREM2 exceeding the levels upon PMA treatment (1 μM) ([4]; 24 h, higher concentrations 100-2000 μM): not observed; cellular tTREM2 levels ([4]; 24 hours treatment): remain constant; sTREM2 levels in medium ([4]; 24 hours treatment): significant increase; sTREM2 levels in medium [4, 7]: significantly increases; cellular tTREM2 levels [4, 7]: unaltered; cellular tTREM2 levels ([4]; 24 hours treatment, listed as NSC0001): not affected; concentration at which the activity of features (i) to (iii) is displayed ([4]; sTREM2 secretion, calcium mobilization and/or PI hydrolysis): 1 to 5 µM; spatial memory (3×Tg-AD mice): improve spatial memory; Aβ and tau pathologies (3×Tg-AD mice; hippocampus and cortex): reduced
C[C@@H]1O[C@@]2(CS1)CN1CCC2CC1.Cl (racemic) [AF102B, cis-2-Methylspiro[1,3-oxathiolane-5,3′-quinuclidine] hydrochloride, reference compound]		persisted	43	decrease	block	decrease	elevate	1680 ± 330	101	levels of Aβ in the CSF (AD patients): significantly decreased; sTREM2 levels in medium [4, 8]: capable of inducing sTREM2 levels; also recorded: significantly enhances; also recorded: significantly increases; cellular tTREM2 levels [4, 8]: not affected; also recorded: unaffected; also recorded: unaltered; concentration at which the compound is active ([4]; features (i) to (iii): sTREM2 secretion, calcium mobilization and/or PI hydrolysis): 10 to 100 µM; cell viability in regards to medium control ([1]; hydrochloride): increased; also recorded: increase in viability
CCC1SC2(CCN(C)CC2)NC1=O (stereo not shown) [Form II]										stability of the crystalline form [6]: highly stable under dry storage conditions for at least two years
CCO [Ethanol]	reduced cell viability; also recorded: rapidly decreases cell viability									
